In patent US9029405B2, “5-(biphenyl-4-yl)-3-phenyl-1,2,4-oxadiazolyl derivatives as ligands on the sphingosine 1-phosphate(SIP)receptors” (Merck Serono S.A., priority 2010, dated 2015):
Where a name gives a salt, the structure may show the parent alone.

Key:
S1P1 [1] = target: T1, S1P1 (Homo sapiens, UniProt P21453); assay: S1P1 internalization assay in S1P1-U2OS cells (cell imaging); assay type: cell-based; parameters: host or cells: U2OS (human bone osteosarcoma epithelial cells); conditions: U2OS cells expressing S1P1-EGFP, 384-well format
Summary of the method: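 U2OS cells stably expressing human S1P1-EGFP, serum-starved 2 h in medium with 0.1% fatty-acid-free BSA, then compound 1 h at 37° C. After fixation and Hoechst nuclear stain, receptor internalization imaged as EGFP spot count per nucleus.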
Target sequence in this assay (P21453 whole entry): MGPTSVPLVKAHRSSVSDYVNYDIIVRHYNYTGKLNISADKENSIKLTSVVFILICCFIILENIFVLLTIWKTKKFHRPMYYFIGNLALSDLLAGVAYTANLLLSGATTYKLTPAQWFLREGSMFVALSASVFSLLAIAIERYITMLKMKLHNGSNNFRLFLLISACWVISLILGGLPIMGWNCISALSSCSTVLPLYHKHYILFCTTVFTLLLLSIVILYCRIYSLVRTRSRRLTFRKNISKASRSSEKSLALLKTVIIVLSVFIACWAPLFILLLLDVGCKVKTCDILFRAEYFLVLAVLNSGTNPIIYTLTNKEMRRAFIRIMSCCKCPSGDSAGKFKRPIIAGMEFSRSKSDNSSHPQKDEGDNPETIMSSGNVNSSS

S1P3 = S1P3 (Homo sapiens, UniProt Q99500); assay: Receptor binding assay, [33P]sphingosine 1-phosphate competition, membranes of CHO cells expressing S1P3; conditions: 384 well plate; read-out: S1P3 Binding Ki [M] (384 well plate)
Summary of the method: (§1)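 SPA competition on CHO membranes with [33P]S1P at 30 pM (S1P1) or 15 pM (S1P3), in 50 mM HEPES pH 7.5, 5 mM MgCl2, 100 mM NaCl, 0.4% fatty acid-free BSA, 60 min at RT. Non-specific binding defined by 1000-fold unlabeled S1P; Ki values reported.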

[2] = Pharmacokinetics from lymphopenia study (mouse); assay type: in vivo; conditions: PK-PD (30 mpk)
Method: (§2) Female C57BL/6 mice (Elevage Janvier) (8 week old) receive S1P agonists by oral route. Blood is sampled in heparinized (100 IU/kg, ip) mice by intracardiac or retroorbital puncture under isoflurane anesthesia 2 to 120 hrs after drug treatment. The white blood cells (lymphocytes and neutrophils) are counted using a Beckman/Coulter counter. The quality of blood sampling is assessed by counting erythocytes and platelets.
The pharmacokinetic properties of compound of example 31, 2-({2-Fluoro-4-[5-(2′-methyl-2-trifluoromethyl-biphenyl-4-yl)-[1,2,4]oxadiazol-3-yl]-benzyl}-methyl-amino)-2-methyl-propionic acid, are the following: […]

lymphocytes = assay: Model of S1P agonists-induced lymphopenia in mice; assay type: in vivo; conditions: oral route, 30 mpk
Method: as §2

S1P1 [3] = target: T1, S1P1; assay: Receptor binding assay, [33P]sphingosine 1-phosphate competition, membranes of CHO cells expressing S1P1; conditions: 384 well plate; read-out: S1P1 Binding Ki [M] (384 well plate)
Summary of the method: as §1
Target sequence in this assay (P21453 whole entry, species assumed): as the sequence (P21453 whole entry) above

[4] = female, C57BL/6, plasma, 30 mg/kg, oral route

S1P3, sequence (Q99500 whole entry, species assumed): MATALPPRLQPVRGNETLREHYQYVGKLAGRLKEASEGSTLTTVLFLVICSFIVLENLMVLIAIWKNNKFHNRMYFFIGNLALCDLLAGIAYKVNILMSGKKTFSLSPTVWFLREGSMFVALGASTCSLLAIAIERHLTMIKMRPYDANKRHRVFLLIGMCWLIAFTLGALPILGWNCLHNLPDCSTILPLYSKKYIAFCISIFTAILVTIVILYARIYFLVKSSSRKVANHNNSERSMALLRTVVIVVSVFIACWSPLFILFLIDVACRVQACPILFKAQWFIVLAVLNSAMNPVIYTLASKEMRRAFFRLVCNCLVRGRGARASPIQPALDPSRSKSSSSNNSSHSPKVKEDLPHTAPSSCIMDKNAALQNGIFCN

Cc1ccccc1-c1ccc(-c2nc(-c3ccc(CN(C)C(C)(C)C(=O)O)c(F)c3)no2)cc1C(F)(F)F [Example 31, 2-({2-Fluoro-4-[5-(2′-methyl-2-trifluoromethyl-biphenyl-4-yl)-[1,2,4]oxadiazol-3-yl]-benzyl}-methyl-amino)-2-methyl-propionic acid]
EC50 (S1P1 [1]): 36.6 nM | Ki (S1P3): 2.54e-06 M | Lymphe node/plasma ratio: 24 h ([2]; 24 h): 2.5 | Lymphe node/plasma ratio: 48 h ([2]; 48 h): 2.7 | CI/F ([2]; oral route): 6.7 mL/min/kg | Kp ([2]; female, C57BL/6, brain/plasma, oral, 30 mg/kg, ratio of AUCz, read-out: Brain/plasma ratio: AUCZ (h*ng/ml)): 3.5 | AUC(0-inf) [2, 4]: 75000 ng·h/mL | Cmax [2, 4]: 7420 ng/mL | Tmax [2, 4]: 2 h | half-life ([2]; female, C57BL/6, plasma, 30 mg/kg, oral route, read-out: T½ (converted)): 6.3 h | % of lymphopenia in mouse at 48 h (lymphocytes): % of lymphopenia in mouse at 48 h 67 +/− 6 | Ki (S1P1 [3]): 5.32e-09 M

Cc1ccccc1-c1ccc(-c2nc(-c3ccc(C(C)N(C)CC(=O)O)cc3)no2)cc1C(F)(F)F (stereo not shown) (as salt: hydrochloride) [Example 40, N-methyl-N-[1-(4-{5-[2′-methyl-2-(trifluoromethyl)biphenyl-4-yl]-1,2,4-oxadiazol-3-yl}phenyl)ethyl]glycine, hydrochloride salt]
melting point: 204 °C

Cc1ccccc1-c1ccc(-c2nc(-c3ccc([C@H](C)N(C)CC(=O)O)cc3)no2)cc1C(F)(F)F (as salt: hydrochloride) [Example 34, N-methyl-N-[(1S)-1-(4-{5-[2′-methyl-2-(trifluoromethyl)biphenyl-4-yl]-1,2,4-oxadiazol-3-yl}phenyl)ethyl]glycine, hydrochloride salt]
melting point: 221 °C

Cc1cc(-c2nc(-c3cccc(C(C)NCC(=O)O)c3)no2)ccc1-c1ccccc1C(F)(F)F (stereo not shown) (as salt: hydrochloride) [Example 38, N-[1-(3-{5-[2-methyl-2′-(trifluoromethyl)biphenyl-4-yl]-1,2,4-oxadiazol-3-yl}phenyl)ethyl]glycine, hydrochloride salt]
melting point: 176 °C

Cc1cc(-c2nc(-c3ccc([C@@H](C)N(C)CC(=O)O)cc3)no2)ccc1-c1ccccc1C(F)(F)F (as salt: hydrochloride) [Example 35, N-methyl-N-[(1R)-1-(4-{5-[2-methyl-2′-(trifluoromethyl)biphenyl-4-yl]-1,2,4-oxadiazol-3-yl}phenyl)ethyl]glycine, hydrochloride salt]
melting point: 217 °C
